According to patent US8574563B2 (Bristol-Myers Squibb Company, priority 2006, dated 2013):
Read-outs that look alike come from different tables or passages of the source.

Tested on: HCV 1b-377-neo replicon cells
Test: HCV replicon assay, HCV 1b-377-neo replicon cells (1b FRET)
Assay type: cell-based, Hepatitis C virus genotype 1b
Conditions: HCV 1b-377-neo replicon cells, HCV 1b genotype, read-out: EC50 range against HCV 1b (Table 2, Range)
Method in brief: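 FRET-based replicon assay in HCV 1b-377-neo cells, including a comparison line carrying the NS5A Y2065H mutation that confers resistance to a reference compound.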

Row | Compound | EC50 [nM] | EC50 (Hepatitis C virus) [nM]
1 | COC(=O)N[C@@H](CCN1CCOCC1)C(=O)N1CCC[C@H]1c1ncc(-c2ccc(-c3ccc(-c4cnc([C@@H]5CCCN5C(=O)[C@@H](NC(=O)OC)C(C)C)[nH]4)cc3)cc2)[nH]1 [Example M68] | 100 to 999 | –
2 | CCN(CC)[C@@H](C)C(=O)N1CCC[C@H]1c1ncc(-c2ccc(-c3ccc(-c4cnc([C@@H]5CCCN5C(=O)[C@@H](NC(=O)OC)C(C)C)[nH]4)cc3)cc2)[nH]1 [Example M69, methyl ((1S)-1-(((2S)-2-(5-(4′-(2-((2S)-1-(N,N-diethyl-L-alanyl)-2-pyrrolidinyl)-1H-imidazol-5-yl)-4-biphenylyl)-1H-imidazol-2-yl)-1-pyrrolidinyl)carbonyl)-2-methylpropyl)carbamate] | – | 100 to 999
3 | CCN(CC)[C@H](C)C(=O)N1CCC[C@H]1c1ncc(-c2ccc(-c3ccc(-c4cnc([C@@H]5CCCN5C(=O)[C@@H](NC(=O)OC)C(C)C)[nH]4)cc3)cc2)[nH]1 [Example M70, methyl ((1S)-1-(((2S)-2-(5-(4′-(2-((2S)-1-(N,N-diethyl-D-alanyl)-2-pyrrolidinyl)-1H-imidazol-5-yl)-4-biphenylyl)-1H-imidazol-2-yl)-1-pyrrolidinyl)carbonyl)-2-methylpropyl)carbamate] | – | 1 to 99
4 | COC[C@H](NC(=O)OC)C(=O)N1CCC[C@H]1c1ncc(-c2ccc(-c3ccc(-c4cnc([C@@H]5CCCN5C(=O)[C@@H](NC(=O)OC)C(C)C)[nH]4)cc3)cc2)[nH]1 [Example M71, methyl ((1S)-2-((2S)-2-(5-(4′-(2-((2S)-1-(N-(methoxycarbonyl)-L-valyl)-2-pyrrolidinyl)-1H-imidazol-5-yl)-4-biphenylyl)-1H-imidazol-2-yl)-1-pyrrolidinyl)-1-(methoxymethyl)-2-oxoethyl)carbamate] | – | 1 to 99
5 | COC(=O)N[C@H](C(=O)N1CCC[C@H]1c1ncc(-c2ccc(-c3ccc(-c4cnc([C@@H]5CCCN5C(=O)[C@@H](NC(=O)OC)C(C)(C)C)[nH]4)cc3)cc2)[nH]1)C(C)C [Example M72, methyl ((1S)-1-(((2S)-2-(5-(4′-(2-((2S)-1-((2S)-2-((methoxycarbonyl)amino)-3,3-dimethylbutanoyl)-2-pyrrolidinyl)-1H-imidazol-5-yl)-4-biphenylyl)-1H-imidazol-2-yl)-1-pyrrolidinyl)carbonyl)-2-methylpropyl)carbamate] | – | 1 to 99
6 | COC(=O)NCC(=O)N1CCC[C@H]1c1ncc(-c2ccc(-c3ccc(-c4cnc([C@@H]5CCCN5C(=O)[C@@H](NC(=O)OC)C(C)C)[nH]4)cc3)cc2)[nH]1 [Example M73, methyl (2-((2S)-2-(5-(4′-(2-((2S)-1-((2S)-2-((methoxycarbonyl)amino)-3-methylbutanoyl)-2-pyrrolidinyl)-1H-imidazol-5-yl)-4-biphenylyl)-1H-imidazol-2-yl)-1-pyrrolidinyl)-2-oxoethyl)carbamate] | – | 100 to 999
7 | CC[C@H](NC(=O)OC)C(=O)N1CCC[C@H]1c1ncc(-c2ccc(-c3ccc(-c4cnc([C@@H]5CCCN5C(=O)[C@@H](NC(=O)OC)C(C)C)[nH]4)cc3)cc2)[nH]1 [Example M74, methyl ((1S)-1-(((2S)-2-(5-(4′-(2-((2S)-1-((2S)-2-((methoxycarbonyl)amino)butanoyl)-2-pyrrolidinyl)-1H-imidazol-5-yl)-4-biphenylyl)-1H-imidazol-2-yl)-1-pyrrolidinyl)carbonyl)-2-methylpropyl)carbamate] | – | 1 to 99
8 | CCC[C@H](NC(=O)OC)C(=O)N1CCC[C@H]1c1ncc(-c2ccc(-c3ccc(-c4cnc([C@@H]5CCCN5C(=O)[C@@H](NC(=O)OC)C(C)C)[nH]4)cc3)cc2)[nH]1 [Example M75, methyl ((1S)-1-(((2S)-2-(5-(4′-(2-((2S)-1-((2S)-2-((methoxycarbonyl)amino)-3-methylbutanoyl)-2-pyrrolidinyl)-1H-imidazol-5-yl)-4-biphenylyl)-1H-imidazol-2-yl)-1-pyrrolidinyl)carbonyl)butyl) carbamate] | 1 to 99 | –
9 | C=CC[C@H](NC(=O)OC)C(=O)N1CCC[C@H]1c1ncc(-c2ccc(-c3ccc(-c4cnc([C@@H]5CCCN5C(=O)[C@@H](NC(=O)OC)C(C)C)[nH]4)cc3)cc2)[nH]1 [Example M76, methyl ((1S)-1-(((2S)-2-(5-(4′-(2-((2S)-1-((2S)-2-((methoxycarbonyl)amino)-3-methylbutanoyl)-2-pyrrolidinyl)-1H-imidazol-5-yl)-4-biphenylyl)-1H-imidazol-2-yl)-1-pyrrolidinyl)carbonyl)-3-buten-1-yl)carbamate] | – | 1 to 99
10 | COC(=O)N[C@H](C(=O)N1CCC[C@H]1c1ncc(-c2ccc(-c3ccc(-c4cnc([C@@H]5CCCN5C(=O)[C@@H](NC(=O)OC)C5CC5)[nH]4)cc3)cc2)[nH]1)C(C)C [Example M77, methyl ((1S)-1-(((2S)-2-(5-(4′-(2-((2S)-1-((2S)-2-cyclopropyl-2-((methoxycarbonyl)amino)acetyl)-2-pyrrolidinyl)-1H-imidazol-5-yl)-4-biphenylyl)-1H-imidazol-2-yl)-1-pyrrolidinyl)carbonyl)-2-methylpropyl)carbamate] | – | 1 to 99
11 | CCN(C)[C@@H](C(=O)N1CCC[C@H]1c1ncc(-c2ccc(-c3ccc(-c4cnc([C@@H]5CCCN5C(=O)[C@@H](NC(=O)OC)C(C)C)[nH]4)cc3)cc2)[nH]1)c1ccccc1 [Example M78, methyl ((1S)-1-(((2S)-2-(5-(4′-(2-((2S)-1-((2R)-2-(ethyl(methyl)amino)-2-phenylacetyl)-2-pyrrolidinyl)-1H-imidazol-5-yl)-4-biphenylyl)-1H imidazol-2-yl)-1-pyrrolidinyl)carbonyl)-2-methylpropyl)carbamate] | – | 1 to 99
12 | CCN(CC)[C@@H](C(=O)N1CCC[C@H]1c1ncc(-c2ccc(-c3ccc(-c4cnc([C@@H]5CCCN5C(=O)[C@@H](NC(=O)OC)C(C)C)[nH]4)cc3)cc2)[nH]1)C(C)C [Example M79, methyl ((1S)-1-(((2S)-2-(5-(4′-(2-((2S)-1-(N,N-diethyl-D-valyl)-2-pyrrolidinyl)-1H-imidazol-5-yl)-4-biphenylyl)-1H-imidazol-2-yl)-1-pyrrolidinyl)carbonyl)-2-methylpropyl)carbamate] | – | 1 to 99
13 | COC(=O)N[C@H](C(=O)N1CCC[C@H]1c1ncc(-c2ccc(-c3ccc(-c4cnc([C@@H]5CCCN5C(=O)[C@H](NC(=O)OC)c5ccccc5)[nH]4)cc3)cc2)[nH]1)C(C)C [Example M80, methyl ((1S)-1-(((2S)-2-(5-(4′-(2-((2S)-1-((2R)-2-((methoxycarbonyl)amino)-2-phenylacetyl)-2-pyrrolidinyl)-1H-imidazol-5-yl)-4-biphenylyl)-1H-imidazol-2-yl)-1-pyrrolidinyl)carbonyl)-2-methylpropyl)carbamate] | – | 1 to 99
14 | COC(=O)N[C@H](C(=O)N1CCC[C@H]1c1ncc(-c2ccc(-c3ccc(-c4cnc([C@@H]5CCCN5C(=O)CC(C)C)[nH]4)cc3)cc2)[nH]1)C(C)C [Example M81, methyl ((1S)-2-methyl-1-(((2S)-2-(5-(4′-(2-((2S)-1-(3-methylbutanoyl)-2-pyrrolidinyl)-1H-imidazol-5-yl)-4-biphenylyl)-1H-imidazol-2-yl)-1-pyrrolidinyl)carbonyl)propyl) carbamate] | 100 to 999 | –
15 | COC(=O)N[C@H](C(=O)N1CCC[C@H]1c1ncc(-c2ccc(-c3ccc(-c4cnc([C@@H]5CCCN5C(=O)N5CCN(C)CC5)[nH]4)cc3)cc2)[nH]1)C(C)C [Example M82, methyl ((1S)-2-methyl-1-(((2S)-2-(5-(4′-(2-((2S)-1-((4-methyl-1-piperazinyl)carbonyl)-2-pyrrolidinyl)-1H-imidazol-5-yl)-4-biphenylyl)-1H-imidazol-2-yl)-1-pyrrolidinyl)carbonyl)propyl) carbamate] | 1 to 99 | –
16 | CCCN(CCC)[C@H](C)C(=O)N1CCC[C@H]1c1ncc(-c2ccc(-c3ccc(-c4cnc([C@@H]5CCCN5C(=O)[C@@H](NC(=O)OC)C(C)C)[nH]4)cc3)cc2)[nH]1 [Example M83, methyl ((1S)-1-(((2S)-2-(5-(4′-(2-((2S)-1-(N,N-dipropyl-D-alanyl)-2-pyrrolidinyl)-1H-imidazol-5-yl)-4-biphenylyl)-1H-imidazol-2-yl)-1-pyrrolidinyl)carbonyl)-2-methylpropyl)carbamate] | – | 1 to 99
17 | CCCN(CCC)[C@@H](C)C(=O)N1CCC[C@H]1c1ncc(-c2ccc(-c3ccc(-c4cnc([C@@H]5CCCN5C(=O)[C@@H](NC(=O)OC)C(C)C)[nH]4)cc3)cc2)[nH]1 [Example M84, methyl ((1S)-1-(((2S)-2-(5-(4′-(2-((2S)-1-(N,N-dipropyl-L-alanyl)-2-pyrrolidinyl)-1H-imidazol-5-yl)-4-biphenylyl)-1H-imidazol-2-yl)-1-pyrrolidinyl)carbonyl)-2-methylpropyl)carbamate] | – | 1 to 99
18 | CC[C@H](C(=O)N1CCC[C@H]1c1ncc(-c2ccc(-c3ccc(-c4cnc([C@@H]5CCCN5C(=O)[C@@H](NC(=O)OC)C(C)C)[nH]4)cc3)cc2)[nH]1)N(CC)CC [Example M85, methyl ((1S)-1-(((2S)-2-(5-(4′-(2-((2S)-1-((2R)-2-(diethylamino)butanoyl)-2-pyrrolidinyl)-1H-imidazol-5-yl)-4-biphenylyl)-1H-imidazol-2-yl)-1-pyrrolidinyl)carbonyl)-2-methylpropyl)carbamate] | – | 1 to 99
19 | CC[C@@H](C(=O)N1CCC[C@H]1c1ncc(-c2ccc(-c3ccc(-c4cnc([C@@H]5CCCN5C(=O)[C@@H](NC(=O)OC)C(C)C)[nH]4)cc3)cc2)[nH]1)N(CC)CC [Example M86, methyl ((1S)-1-(((2S)-2-(5-(4′-(2-((2S)-1-((2S)-2-(diethylamino)butanoyl)-2-pyrrolidinyl)-1H-imidazol-5-yl)-4-biphenylyl)-1H-imidazol-2-yl)-1-pyrrolidinyl)carbonyl)-2-methylpropyl)carbamate] | – | 1 to 99
20 | COC(=O)N[C@H](C(=O)N1CCC[C@H]1c1ncc(-c2ccc(-c3ccc(-c4cnc([C@@H]5CCCN5C(=O)c5c[nH]cn5)[nH]4)cc3)cc2)[nH]1)C(C)C [Example M87, methyl ((1S)-1-(((2S)-2-(5-(4′-(2-((2S)-1-(1H-imidazol-4-ylcarbonyl)-2-pyrrolidinyl)-1H-imidazol-5-yl)-4-biphenylyl)-1H-imidazol-2-yl)-1-pyrrolidinyl)carbonyl)-2-methylpropyl)carbamate] | – | 1 to 99
